Experimental data taken from publication PMC3996155, “The crystal structure of fibroblast growth factor 18 (FGF18)” (Protein & Cell, 2014).
pKd: −log10 of the molar value.

Biological target: T1, FGF18 (Homo sapiens, UniProt O76093)
T1 construct: residues 50-194 of the 207-residue precursor (signal peptide 1-27 absent), expressed in Escherichia coli, purified
T1 sequence (O76093 50-194): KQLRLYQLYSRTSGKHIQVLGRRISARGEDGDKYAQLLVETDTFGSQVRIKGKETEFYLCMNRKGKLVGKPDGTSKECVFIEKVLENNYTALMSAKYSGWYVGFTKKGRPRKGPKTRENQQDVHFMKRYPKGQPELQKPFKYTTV
Assay: isothermal titration calorimetry
Type: binding
Details: size-defined heparin oligosaccharide, sulfation pattern not stated; error exceeds the value; read-out: affinity

For heparin oligosaccharides of 6 dp, the pKd was 5.66.
